What all share (details): exposure time: 90 min
The subject of one assay is 1083 (donor line of iPSC-derived cardiomyocytes). The experiment in a line: POD (EC05) for decrease in beat frequency (negative chronotrope) vs vehicle; higher = less potent (higher point of departure). The procedure: (§1)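 Human iPSC-derived cardiomyocytes from 16 donors were exposed for 90 min at 37 °C to each PFAS at 0.1, 1, 10 and 100 µM in 0.5% DMSO, 384-well plates. Kinetic Ca2+ flux (FLIPR) and Hoechst nuclei counts were normalised to vehicle wells and fitted with a hierarchical Bayesian Hill model to give donor-specific PODs: EC05 for beat-rate increase or decrease and for decay-to-rise ratio increase (QT proxy), EC95 for peak-frequency loss (asystole), EC10 for total cell number loss. 0.03 µM is the lower bound.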

Assay [1] concerns 11235 (donor line of iPSC-derived cardiomyocytes). The assay is described as above. How it is done: as §1
A further assay has as its system 1309 (donor line of iPSC-derived cardiomyocytes). Described as above. The procedure: as §1
Assay [2] deals with 1368 (donor line of iPSC-derived cardiomyocytes). The assay is described as above. How it is done:
as §1

The subject of a further assay is 1392 (donor line of iPSC-derived cardiomyocytes). The assay is described as above. The procedure:
as §1

The subject of assay [3] is 1434 (donor line of iPSC-derived cardiomyocytes). The assay is described as above. The procedure:
as §1

A further assay relates to 1516 (donor line of iPSC-derived cardiomyocytes). Described as above. The procedure:
as §1

Another assay concerns 1518 (donor line of iPSC-derived cardiomyocytes). The description is as above. The procedure: as §1
The next assay relates to 1531 (donor line of iPSC-derived cardiomyocytes). The description is as above. How it is done:
as §1

Another assay relates to 1535 (donor line of iPSC-derived cardiomyocytes). The assay is described as above. The procedure:
as §1

Assay [4] deals with 1565 (donor line of iPSC-derived cardiomyocytes). Described as above. The procedure: as §1
The subject of the next assay is 20032 (donor line of iPSC-derived cardiomyocytes). Described as above. How it is done:
as §1

A further assay has as its system 20084 (donor line of iPSC-derived cardiomyocytes). The assay is described as above. How it is done: as §1
The next assay deals with 30145 (donor line of iPSC-derived cardiomyocytes). The assay is described as above. How it is done:
as §1

For assay [5], the system named is 30171 (donor line of iPSC-derived cardiomyocytes). Described as above. How it is done: as §1
Assay [6] deals with 11235. The experiment in a line: POD (EC05) for increase in Ca2+ transient decay-to-rise ratio (QT prolongation) vs vehicle; higher = less potent (higher point of departure). The method, boiled down: (§2)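 Ca2+ flux in human iPSC-derived cardiomyocytes from 16 donors was recorded on a FLIPR Tetra for 100 s before and after a 90 min exposure at 37 °C to 0.1, 1, 10 and 100 µM (final, 0.5% DMSO). Donor-specific points of departure came from hierarchical Bayesian Hill fits to vehicle-normalised beat frequency, decay-to-rise ratio or peak frequency. A 5% change served as threshold, except for peak frequency, where it was a 95% loss.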

Assay [7] deals with 1368. Described as above. The method, boiled down: as §2
The test system of assay [8] is 1434. The description is as above. The procedure, abridged:
as §2

Assay [9] relates to 1565. The description is as above. The method, boiled down: as §2
The test system of assay [10] is 30171. The description is as above. The method, boiled down: as §2

For `NS(=O)(=O)C(F)(F)C(F)(F)C(F)(F)C(F)(F)C(F)(F)C(F)(F)F` [Perfluorohexanesulfonamide], the POD vs vehicle is 25.7 µM in the assay with 1083; 0.693 µM in the assay with 11235 [1]; 14.7 µM with 1309; above 100 µM with 1368 [2]; 91.8 µM in the assay on 1392; 9.37 µM in the assay on 1434 [3]. In addition, the POD vs vehicle with 1516 came out at 14.3 µM; in the assay with 1518, 32.8 µM; with 1531, 6.44 µM; in the assay with 1535, 12.6 µM; with 1565 [4], 92 µM; in the assay on 20032, 13.4 µM. Also, the POD vs vehicle in the assay on 20084 was 54.4 µM; in the assay with 30145 it was 34.9 µM; in the assay with 30171 [5] it was 7.7 µM; in the assay with 11235 [6] it was above 100 µM; in the assay on 1368 [7], above 100 µM; in the assay with 1434 [8], above 100 µM. For the same compound, the POD vs vehicle in the assay with 1565 [9] and with 30171 [10] was above 100 µM in each case.

On to `O=C(O)C(F)(F)OC(F)(F)C(F)(F)OC(F)(F)F` [Perfluoro-3,6-dioxaheptanoic_acid], for which the POD vs vehicle with 1083, in the assay on 11235 [1], in the assay with 1309, with 1368 [2], with 1392 and with 1434 [3] was above 100 µM throughout. The POD vs vehicle in the assay with 1516, with 1518, in the assay on 1531, in the assay with 1535, in the assay with 1565 [4] and with 20032 was above 100 µM each time. Also, the POD vs vehicle in the assay on 20084, with 30145, with 30171 [5], in the assay with 11235 [6], in the assay with 1368 [7] and with 1434 [8] was above 100 µM in each case. For the same compound, the POD vs vehicle with 1565 [9] and with 30171 [10] was above 100 µM each time.

As for `O=C(O)C(F)(F)C(F)(F)C(F)(F)C(F)(F)C(F)(F)C(F)(F)C(F)(F)C(F)(F)C(F)(F)F` [Perfluorodecanoic_acid], the POD vs vehicle in the assay on 1083 was 18.3 µM; with 11235 [1], 15.5 µM; in the assay on 1309, 56.2 µM; with 1368 [2] it was above 100 µM; with 1392, 27.5 µM; with 1434 [3], 12.4 µM. Further, the POD vs vehicle was 14.9 µM in the assay with 1516; above 100 µM in the assay on 1518; 64.4 µM with 1531; 66.5 µM in the assay with 1535; above 100 µM in the assay with 1565 [4]; above 100 µM with 20032. Moreover, the POD vs vehicle with 20084 was 77.6 µM; in the assay with 30145, above 100 µM; in the assay on 30171 [5], 7.83 µM; in the assay with 11235 [6], above 100 µM; with 1368 [7], above 100 µM; in the assay with 1434 [8] it was 19.9 µM. For the same compound, the POD vs vehicle with 1565 [9] and in the assay with 30171 [10] was above 100 µM in each case.

With `O=S(=O)(O)C(F)(F)C(F)(F)C(F)(F)C(F)(F)F` [Perfluorobutanesulfonic_acid], the POD vs vehicle with 1083 was above 100 µM; in the assay on 11235 [1], 41.4 µM; with 1309 it was above 100 µM; in the assay with 1368 [2], above 100 µM; in the assay on 1392 it was above 100 µM; in the assay with 1434 [3], above 100 µM. For the same compound, the POD vs vehicle was 29.7 µM in the assay on 1516; above 100 µM in the assay on 1518; above 100 µM in the assay on 1531; above 100 µM in the assay on 1535; above 100 µM with 1565 [4]; above 100 µM with 20032. The POD vs vehicle in the assay with 20084 was above 100 µM; with 30145, above 100 µM; in the assay on 30171 [5], 73.6 µM; in the assay with 11235 [6], above 100 µM; in the assay with 1368 [7] it was above 100 µM; in the assay with 1434 [8], above 100 µM. In addition, the POD vs vehicle in the assay on 1565 [9] and in the assay on 30171 [10] was above 100 µM throughout.

For the compound `OCCC(F)(F)C(F)(F)C(F)(F)C(F)(F)F` [4:2 Fluorotelomer alcohol], the POD vs vehicle in the assay on 1083, with 11235 [1], in the assay on 1309, with 1368 [2], in the assay with 1392 and with 1434 [3] was above 100 µM throughout. Besides, the POD vs vehicle in the assay on 1516, in the assay with 1518, with 1531, with 1535, with 1565 [4] and in the assay with 20032 was above 100 µM throughout. Besides, the POD vs vehicle in the assay on 20084, with 30145, in the assay with 30171 [5], with 11235 [6], in the assay with 1368 [7] and in the assay on 1434 [8] was above 100 µM each time. Besides, the POD vs vehicle in the assay with 1565 [9] and with 30171 [10] was above 100 µM each time.
